Results reported in PubChem BioAssay (NCI).
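Exposure lasted 48 hours, with cells grown in 96-well plates and compounds tested at five concentrations. TGI is the concentration that stops growth completely.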

What was measured:
Test in all cases: NCI anticancer screen, dose series, 48 h
[1] = test system: 786-0 renal
[2] = test system: A498 renal
[3] = test system: A549 NSCLC
[4] = test system: ACHN renal
[5] = test system: BT-549 breast
[6] = test system: CAKI-1 renal
[7] = test system: CCRF-CEM leukemia
[8] = test system: COLO 205 colon
[9] = test system: DU-145 prostate
[10] = test system: EKVX NSCLC
[11] = test system: HCT-116 colon
[12] = test system: HCT-15 colon
[13] = test system: HL-60(TB) leukemia
[14] = test system: HOP-62 NSCLC
[15] = test system: HOP-92 NSCLC
[16] = test system: HS 578T breast
[17] = test system: HT29 colon
[18] = test system: IGROV1 ovarian
[19] = test system: K-562 leukemia
[20] = test system: KM12 colon
[21] = test system: LOX IMVI melanoma
[22] = test system: M14 melanoma
[23] = test system: MALME-3M melanoma
[24] = test system: MCF7 breast
[25] = test system: MDA-MB-231 breast
[26] = test system: MDA-MB-435
[27] = test system: MDA-N
[28] = test system: MOLT-4 leukemia
[29] = test system: NCI-H226 lung
[30] = test system: NCI-H23 lung
[31] = test system: NCI-H460 lung
[32] = test system: NCI/ADR-RES ovarian
[33] = test system: OVCAR-3 ovarian
[34] = test system: OVCAR-4 ovarian
[35] = test system: OVCAR-5 ovarian
[36] = test system: OVCAR-8 ovarian
[37] = test system: PC-3 prostate
[38] = test system: RPMI-8226 leukemia
[39] = test system: RXF 393 renal
[40] = test system: SF-268 CNS
[41] = test system: SF-295 CNS
[42] = test system: SF-539 CNS
[43] = test system: SK-MEL-2 melanoma
[44] = test system: SK-MEL-28 melanoma
[45] = test system: SK-MEL-5 melanoma
[46] = test system: SK-OV-3 ovarian
[47] = test system: SN12C renal
[48] = test system: SNB-19 CNS
[49] = test system: SNB-75 CNS
[50] = test system: SR leukemia
[51] = test system: SW-620 colon
[52] = test system: T-47D breast
[53] = test system: TK-10 renal
[54] = test system: U251 CNS
[55] = test system: UACC-257 melanoma
[56] = test system: UACC-62 melanoma
[57] = test system: UO-31 renal
[58] = test system: DLD-1 colon
[59] = test system: DMS 114 small cell lung
[60] = test system: DMS 273 small cell lung
[61] = test system: HCC-2998 colon
[62] = test system: KM20L2 colon
[63] = test system: LXFL 529 NSCLC
[64] = test system: M19-MEL melanoma
[65] = test system: NCI-H522 lung
[66] = test system: XF 498 CNS

SMILES: COc1ccccc1C[C@@H]1OC2(C=CC(=O)C=C2)O[C@H]1Cc1ccccc1OC
- TGI [1]: 4.29 µM
- TGI [2]: 49.9 µM
- TGI [3]: > 50 µM
- TGI [4]: 17.7 µM
- TGI [5]: 11.5 µM
- TGI [6]: 29.7 µM
- TGI [7]: 8.6 µM
- TGI [8]: 14.9 µM
- TGI [9]: > 50 µM
- TGI [10]: 13 µM
- TGI [11]: 2.32 µM
- TGI [12]: 27.9 µM
- TGI [13]: 29.8 µM
- TGI [14]: 15.4 µM
- TGI [15]: 20.1 µM
- TGI [16]: 29.3 µM
- TGI [17]: 16.7 µM
- TGI [18]: 13.6 µM
- TGI [19]: > 50 µM
- TGI [20]: 18.8 µM
- TGI [21]: 13.8 µM
- TGI [22]: 17.5 µM
- TGI [23]: 21.3 µM
- TGI [24]: 17.6 µM
- TGI [25]: 38.6 µM
- TGI [26]: 38.2 µM
- TGI [27]: 21.7 µM
- TGI [28]: > 50 µM
- TGI [29]: 16.8 µM
- TGI [30]: 18.9 µM
- TGI [31]: > 50 µM
- TGI [32]: 18.4 µM
- TGI [33]: 18.9 µM
- TGI [34]: 19.9 µM
- TGI [35]: 16.5 µM
- TGI [36]: 3.46 µM
- TGI [37]: 20.6 µM
- TGI [38]: 6.24 µM
- TGI [39]: 3.81 µM
- TGI [40]: 16.9 µM
- TGI [41]: 22.9 µM
- TGI [42]: 15.6 µM
- TGI [43]: 18.4 µM
- TGI [44]: 16.1 µM
- TGI [45]: 16.1 µM
- TGI [46]: 24.5 µM
- TGI [47]: 23.4 µM
- TGI [48]: 24.2 µM
- TGI [49]: 17.6 µM
- TGI [50]: 13.1 µM
- TGI [51]: 5.98 µM
- TGI [52]: > 50 µM
- TGI [53]: 27.4 µM
- TGI [54]: 19.4 µM
- TGI [55]: 16.1 µM
- TGI [56]: 23.2 µM
- TGI [57]: 12.7 µM

SMILES: CC1(C)C(=O)C(C)(C)C1=S
- TGI [1]: > 100 µM
- TGI [2]: > 100 µM
- TGI [3]: > 100 µM
- TGI [4]: > 100 µM
- TGI [6]: > 100 µM
- TGI [7]: > 100 µM
- TGI [8]: > 100 µM
- TGI [58]: > 100 µM
- TGI [59]: > 100 µM
- TGI [60]: > 100 µM
- TGI [10]: > 100 µM
- TGI [61]: > 100 µM
- TGI [11]: > 100 µM
- TGI [12]: > 100 µM
- TGI [13]: > 100 µM
- TGI [14]: > 100 µM
- TGI [17]: > 100 µM
- TGI [18]: > 100 µM
- TGI [19]: > 100 µM
- TGI [20]: > 100 µM
- TGI [62]: > 100 µM
- TGI [21]: > 100 µM
- TGI [63]: > 100 µM
- TGI [22]: > 100 µM
- TGI [64]: > 100 µM
- TGI [23]: > 100 µM
- TGI [28]: > 100 µM
- TGI [29]: > 100 µM
- TGI [30]: > 100 µM
- TGI [31]: > 100 µM
- TGI [65]: > 100 µM
- TGI [33]: > 100 µM
- TGI [34]: > 100 µM
- TGI [35]: > 100 µM
- TGI [36]: > 100 µM
- TGI [38]: > 100 µM
- TGI [40]: > 100 µM
- TGI [41]: > 100 µM
- TGI [43]: > 100 µM
- TGI [44]: > 100 µM
- TGI [45]: > 100 µM
- TGI [46]: > 100 µM
- TGI [47]: > 100 µM
- TGI [48]: > 100 µM
- TGI [49]: > 100 µM
- TGI [50]: > 100 µM
- TGI [51]: > 100 µM
- TGI [53]: > 100 µM
- TGI [54]: > 100 µM
- TGI [55]: > 100 µM
- TGI [56]: > 100 µM
- TGI [57]: > 100 µM
- TGI [66]: > 100 µM

SMILES: O=C(Nc1ccccc1)c1cc(S(=O)(=O)N2CCNNC2=O)c(S)cc1Cl
- TGI [1]: > 100 µM
- TGI [2]: > 100 µM
- TGI [3]: > 100 µM
- TGI [4]: > 100 µM
- TGI [5]: > 100 µM
- TGI [6]: > 100 µM
- TGI [7]: > 100 µM
- TGI [8]: > 100 µM
- TGI [9]: > 100 µM
- TGI [10]: > 100 µM
- TGI [61]: > 100 µM
- TGI [11]: 95.5 µM
- TGI [12]: > 100 µM
- TGI [13]: > 100 µM
- TGI [15]: > 100 µM
- TGI [16]: > 100 µM
- TGI [18]: > 100 µM
- TGI [19]: > 100 µM
- TGI [20]: > 100 µM
- TGI [21]: > 100 µM
- TGI [22]: > 100 µM
- TGI [23]: > 100 µM
- TGI [24]: > 100 µM
- TGI [25]: 95 µM
- TGI [26]: > 100 µM
- TGI [27]: > 100 µM
- TGI [28]: > 100 µM
- TGI [29]: > 100 µM
- TGI [31]: > 100 µM
- TGI [65]: > 100 µM
- TGI [32]: > 100 µM
- TGI [33]: > 100 µM
- TGI [34]: > 100 µM
- TGI [35]: > 100 µM
- TGI [36]: > 100 µM
- TGI [37]: > 100 µM
- TGI [38]: > 100 µM
- TGI [39]: 74.4 µM
- TGI [40]: > 100 µM
- TGI [41]: > 100 µM
- TGI [42]: > 100 µM
- TGI [43]: > 100 µM
- TGI [44]: > 100 µM
- TGI [45]: > 100 µM
- TGI [47]: > 100 µM
- TGI [48]: > 100 µM
- TGI [49]: > 100 µM
- TGI [50]: > 100 µM
- TGI [51]: > 100 µM
- TGI [52]: 83.9 µM
- TGI [53]: > 100 µM
- TGI [54]: > 100 µM
- TGI [55]: > 100 µM
- TGI [56]: > 100 µM
- TGI [57]: > 100 µM

SMILES: CC1CC(=O)N(N(C)C)C(C#N)(C#N)C1(C#N)C#N (stereo not drawn)
- TGI [1]: 28.6 µM
- TGI [2]: 34.1 µM
- TGI [3]: > 74.2 µM
- TGI [4]: 29.3 µM
- TGI [5]: 32.7 µM
- TGI [6]: 5.23 µM
- TGI [7]: 4.8 µM
- TGI [8]: 7.99 µM
- TGI [9]: 32.5 µM
- TGI [10]: 57.5 µM
- TGI [61]: 34.9 µM
- TGI [11]: 51.7 µM
- TGI [12]: 31.6 µM
- TGI [13]: 4.83 µM
- TGI [14]: > 60.6 µM
- TGI [15]: 26 µM
- TGI [16]: 59.7 µM
- TGI [17]: 38 µM
- TGI [18]: 40 µM
- TGI [19]: > 66.3 µM
- TGI [20]: > 64.9 µM
- TGI [21]: 42.7 µM
- TGI [22]: 42.9 µM
- TGI [23]: 29.3 µM
- TGI [24]: > 100 µM
- TGI [25]: 28.9 µM
- TGI [26]: 32.9 µM
- TGI [27]: 33.2 µM
- TGI [28]: 5.04 µM
- TGI [29]: 67 µM
- TGI [30]: 43.8 µM
- TGI [65]: 7.73 µM
- TGI [32]: 55 µM
- TGI [33]: 44.6 µM
- TGI [34]: 33.4 µM
- TGI [35]: 51.8 µM
- TGI [36]: 45.2 µM
- TGI [37]: 34.8 µM
- TGI [38]: 32 µM
- TGI [39]: 26.6 µM
- TGI [40]: > 58.9 µM
- TGI [41]: > 77.4 µM
- TGI [42]: 59.1 µM
- TGI [43]: 59.3 µM
- TGI [44]: 34.3 µM
- TGI [45]: 47 µM
- TGI [46]: > 64.9 µM
- TGI [47]: 37 µM
- TGI [48]: > 61.8 µM
- TGI [49]: > 51 µM
- TGI [50]: 30.7 µM
- TGI [51]: 21.1 µM
- TGI [52]: 42.1 µM
- TGI [53]: 30.3 µM
- TGI [54]: 42.4 µM
- TGI [55]: 29.8 µM
- TGI [56]: 39.3 µM
- TGI [57]: 31.3 µM
